Format: physicochemical
Description: The short degradation period refers that the biodegradation effect is high; it has advantage that the secondary infection due to the suture is decreased.

poly(glycolide-co-L-lactide) [PGLA suture]
degradation behavior (in words): degradation of the suture was quickly progressed

Reference: patent US20110135761A1, “ANTIMICROBIAL SUTURE FOR MEDICAL USE WITH GRAPEFRUIT EXTRACT, AND MANUFACTURING METHOD THEREOF” (Korea Institute of Ceramic Engineering and Technology, priority 2009, published 2011)
